# In patent US20230270724A1, “PDE3 inhibitors for treating viral infections” (priority 2020, published 2023):
# Values joined by “and” are separate entries in the source; they are usually repeats but may differ in a detail not shown here. Equal values may be shown once. “Also recorded” adds a separate entry of the source.
# Key:
# pro-inflammation = details: patients with cardiopulmonary bypass surgery; antiviral activity maintained; cited from earlier work
# SARS-CoV-2 = assay: Clinical case series: enoximone IV (Perfan) in COVID-19 patients at ICU admission, compared with prior control patients; details: for FiO2 / RESP. RATE: one value per patient; for RESP. SUPPORT: one value per patient 1-4
# [1] = at the doses used, all patients
# [2] = one value per enoximone-treated subject (1-4 = c4-c7)
smiles,measurement,setting,value
"CSc1ccc(C(=O)c2[nH]c(=O)[nH]c2C)cc1 [enoximone, 1,3-dihydro-4-methyl-5-[4-(methylthio)benzoyl]-2H-imidazol-2-on]",effectiveness against pro-inflammation compared with methylprednisolone,pro-inflammation,as effective against pro-inflammation as methylprednisolone
same,time after start of enoximone until breathing calmly and able to call,"SARS-CoV-2; Patient 1, 20 mg IV then perfusion 10 mg/h, monosyllabic upon entry",10 min
same,time until calmer breathing and mobilisation,"SARS-CoV-2; Patient 2, 20 mg IV then 10 mg/h",about 2 days
same,time before the patient had lost the feeling of dyspnea,"SARS-CoV-2; Patient 2, 20 mg IV then 10 mg/h, sputum retention",1 days
same,time until patient breathed optimally and Optiflow could be reduced to 0,"SARS-CoV-2; Patient 3 (COPD Gold III), 20 mg IV then 10 mg/h",a day and a half
same,time until able to breathe calmly and communicate normally,"SARS-CoV-2; Patient 4, bolus then i.v. perfusor 5 mg/hour during 24 hours",≤ 10 min
same,FiO2,SARS-CoV-2; after 24 hrs of Enoximone,60% and 55% and 50%
same,RESP. RATE,SARS-CoV-2; after 24 hrs of Enoximone,15 and 12
same,RESP. SUPPORT,SARS-CoV-2; after 24 hrs of Enoximone,none and Optiflow (3×)
same,FiO2,SARS-CoV-2; after 48 hrs,60% and 50%
same,RESP. RATE,SARS-CoV-2; after 48 hrs,16 and 13
same,RESP. SUPPORT,SARS-CoV-2; after 48 hrs,none (2×) and Optiflow (2×)
same,persistence of beneficial effect,"SARS-CoV-2; after discontinuation of enoximone, all patients",beneficial effect persisted even after discontinuation
same,adverse events,SARS-CoV-2; [1],no clinically relevant adverse events were observed
same,tolerability,SARS-CoV-2; [1],well-tolerated in all patients
same,blood gas analysis,SARS-CoV-2; between before and 1 h after enoximone,minimal improvement in three out of four patients
same,stay in ICU,"SARS-CoV-2; enoximone-treated patients, controls 12-31 days",2 to 5 days
same,discharge from hospital after start of enoximone treatment,"SARS-CoV-2; enoximone-treated patients, controls 18-44 days following start of mechanical ventilation",5 to 12 days
same,overall stay in hospital,"SARS-CoV-2; enoximone-treated patients, controls 22-46 days, Mann-Whitney U test p=0.05",13 to 15 days
same,edema,SARS-CoV-2; following enoximone treatment,decrease of edema
same,oxygenation,"SARS-CoV-2; following enoximone treatment (Table 3, FiO2%)",substantially improved
same,need for mechanical ventilation,"SARS-CoV-2; four enoximone-treated patients vs three controls, Fisher's exact test p=0.029",none of the enoximone-treated patients required mechanical ventilation; also recorded: no need for mechanical ventilation
same,symptomatic relief,SARS-CoV-2; four patients,rapid symptomatic relief in two out of four patients
same,Days mechanical ventilation,SARS-CoV-2; [2],0 days
same,Total days in hospital [=ii + iii + iv],SARS-CoV-2; [2],14 days and 13 days and 15 days
same,Total duration of disease (onset-discharge) [=i + ii + iii + iv),SARS-CoV-2; [2],19 and 20 and 26
same,time to full recovery,SARS-CoV-2; patients 1 and 4,within a few hours
same,time to respond,"SARS-CoV-2; patients 2 and 3 (comorbid obesity or COPD GOLD III), sputum retention",24 to 36 h
